This note sets out measurements from PubChem BioAssay (NCI).

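Results reflect a 48-hour exposure of cells in 96-well plates to compound at five concentrations. TGI: concentration producing complete growth inhibition.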

Assay in all cases: DTP human tumour cell line panel, 48 h
For assay [1], the system named is SF-268 CNS.
In assay [2] the test system is NCI-H23 lung.
For assay [3], the system named is SNB-19 CNS.
The subject of assay [4] is NCI-H460 lung.
The test system of assay [5] is EKVX NSCLC.
Assay [6] concerns M14 melanoma.
Assay [7] concerns DU-145 prostate.
Assay [8] relates to MALME-3M melanoma.
Assay [9] deals with ACHN renal.
Assay [10] concerns NCI/ADR-RES ovarian.
Assay [11] deals with PC-3 prostate.
The test system of assay [12] is RPMI-8226 leukemia.

As a reminder, the TGI is the concentration at which net growth stops. The low end stands for greater sensitivity of the cells, the high end for lower sensitivity of the cells. In the case of `CCCNc1[nH]c(C(C)=O)c(N)c1C(=S)Nc1ccccc1`, the TGI in assay [1] is 86.8 µM; in [2], over 100 µM; in assay [3], over 100 µM; in assay [4], over 100 µM; in assay [5], over 100 µM; in [6], 36.8 µM. Further, the TGI was over 100 µM in assay [7]; 83.9 µM in assay [8]; over 100 µM in [9]; over 100 µM in assay [10]; over 100 µM in assay [11].
On to `OCCOCCO[P+]1(OCCOCCO)n2c3ccc2C(c2ccccc2)=C2C=CC(=N2)C(c2ccccc2)=c2ccc(n21)=C(c1ccccc1)C1=NC(=C3c2ccccc2)C=C1`, for which the TGI in assay [2] stood at 0.629 µM; in assay [4] it was 0.886 µM; in assay [6], 1.38 µM; in [7] it was 1.72 µM; in [8], 0.706 µM; in assay [9], 1.05 µM. Besides, the results for the TGI in assay [10], in assay [12] and in assay [11] were over 67.5 µM, 0.0896 µM and 1.2 µM, respectively.
On to `Cc1ccc(C2SC(N)=Nc3c2c(C)nn3C(=O)c2ccncc2)cc1` (configuration not stated), for which the TGI in assay [1], in [2], in [3], in assay [4], in [6] and in assay [7] was over 10 µM in each case. The TGI in assay [8], in assay [9], in assay [10], in [12] and in [11] was over 10 µM throughout.
In the case of `COc1ccc(-c2nc3ccc(C)cc3o2)c(OC)c1`, the TGI was determined as 77.4 µM in [1]; 87.5 µM in assay [2]; 61.4 µM in assay [3]; 65.6 µM in assay [4]; 63 µM in assay [5]; 35.7 µM in assay [6]. Also, the TGI is 50.5 µM in [7]; 42.1 µM in assay [8]; over 100 µM in [9]; 99.9 µM in [10]; 49.1 µM in assay [12]; 67.1 µM in [11].
On to `COc1cc2c(cc1OC)-c1cc3ccccc3c(=O)n1CCC2`, for which the TGI in assay [1] was over 100 µM; in assay [2] it was 65.1 µM; in [3] it was over 100 µM; in [4] it was 11.2 µM; in assay [5] it was over 100 µM; in assay [6], over 59.1 µM. For the same molecule, the TGI is over 66 µM in assay [7]; 98.1 µM in [8]; over 100 µM in assay [9]; 32.2 µM in [10]; 29.4 µM in assay [12]; 62.7 µM in assay [11].
`CCOC(=O)c1sc2nc(SC)nc(Nc3ccc(OC)c(OC)c3)c2c1N`: the TGI is 80.9 µM in assay [1]; over 100 µM in assay [2]; 56 µM in [3]; over 100 µM in assay [4]; over 100 µM in assay [5]; over 100 µM in [6]. The TGI in assay [7], in [8], in assay [9], in assay [10], in assay [12] and in [11] was over 100 µM in each case.
Consider `CCCCCCCCCCCCCCCCCCNc1ccn(C2OC(CO)C(OP(=O)(O)OCC3CCC(n4ccc(N)nc4=O)O3)C2O)c(=O)n1` (configuration not stated), for which the TGI in assay [1], in assay [2], in assay [3], in assay [4], in assay [5] and in [6] was over 100 µM in each case. The TGI in [7] was over 100 µM; in assay [8], 94.8 µM; in [9] it was over 100 µM; in [10] it was over 100 µM; in [11], 40.6 µM.
Take `COC(CNC(=O)C(C)NC(=O)C(C)NC(=O)c1ccccc1)OC` (configuration not stated): the TGI in assay [1], in [2], in [4], in assay [5], in [6] and in assay [7] was over 100 µM throughout. Besides, the TGI in assay [8], in assay [9], in assay [10], in assay [12] and in [11] was over 100 µM each time.
Take `O=C(c1nsc(Cl)c1Cl)N1CCCCC1`: the TGI in assay [1], in [2], in assay [3], in assay [5], in assay [6] and in [7] was over 100 µM throughout. The TGI in assay [8], in [10], in assay [12] and in assay [11] was over 100 µM each time.
As for `CNC(=O)N(CCC#N)CCN(CCN(C(=O)NC)c1ccccc1)C(=O)NC`, the TGI in [2], in [3], in assay [4], in [5], in assay [6] and in assay [7] was over 100 µM each time. Also, the TGI in [8], in [9], in assay [10], in assay [12] and in assay [11] was over 100 µM each time.
For `CC(=O)OC1CC(OC2C(O)CC(OC3C(O)CC(OC4CCC5(C)C(CCC6C5CC(O)C5(C)C(C7=CC(=O)OC7)CCC65O)C4)OC3C)OC2C)OC(C)C1O` (configuration not stated) (tested in a mixture with another compound), the TGI in assay [1] was 0.119 µM; in assay [2] it was 0.0346 µM; in assay [3], 0.458 µM; in assay [4], 0.0368 µM; in [5], 0.0381 µM; in assay [6], 0.231 µM. For the same molecule, the TGI was determined as 0.0377 µM in assay [7]; 0.0479 µM in [8]; 0.0818 µM in assay [9]; 0.0732 µM in assay [10]; 0.123 µM in assay [11].
Consider `O=S(=O)(Nc1ccccc1S(=O)(=O)c1ccccc1)c1ccccc1`, for which the TGI in assay [1] is over 100 µM; in assay [2], over 100 µM; in assay [3] it was over 100 µM; in assay [5] it was 97 µM; in [6] it was over 100 µM; in assay [7] it was over 100 µM. In addition, the TGI in assay [8], in assay [9], in [10], in [12] and in [11] was over 100 µM throughout.
